Measurements published in article PMC10285648, “iTAG an optimized IMiD-induced degron for targeted protein degradation in human and murine cells” (iScience, 2023).

Legend:
[1] = system: Flag-HA-DCD23-EGFP; assay: Degradation of Flag-HA-DCD23-EGFP in murine cells; format: cell-based, mouse; conditions: for DC50 / DCmax: 24h, flow cytometry
Description: Given the high degradation efficiency of DCD23 in human cells, we sought to test the applicability of this system in murine cells.
The protein lysates were probed for EGFP using western blotting. […] EGFP signal was then measured using flow cytometry. (3 independent experiments, normalized to the control and represented as mean ± SD). […] Data are plotted as Log2 fold change relative to DMSO versus Log10 of p value.
As an additional validation of iTAG (DCD23) induced degradation, we tested the same constructs in murine colorectal carcinoma cells (CT26) where we saw similar loss of EGFP with a panel of IMiD/CeLMODs (Figure S9B).

[2] = system: N-terminally tagged cMYC, RBM39, BRD4 (Flag-HA-DCD23 or Flag-HA-FKBP12^[F36V]); assay: Western blotting, iTAG versus dTAG fused proteins in SUM159; format: cell-based, human; conditions: SUM159, dTAG-13 on dTAG, CC220 on iTAG
Description: The fusion constructs were stably expressed in SUM159 cells and loss of protein was determined by western blotting.
The protein lysates were probed for HA using western blotting. […] The protein lysates were probed for HA using western blotting. […] Median EGFP intensity was measured in each condition using flow cytometry. (3 independent experiments, represented as mean ± SD).
The dTAG system has also been adapted to direct targets to the E3 CRL2^VHL using the PROTAC dTAG^V-1^16. […] We evaluated the degradation N-terminally tagged cMYC and RBM39 dTAG^V-1, we included BRD4 as a control as it was reported to be a well degraded target in the initial dTAG optimization (Figure 3C).[15]
For the pHAGE-PGK constructs: DCD23, SuperDegron and FKBP12^F36V were separately cloned into a pHAGE-PGK DEST backbone. cDNA encoding the indicated protein was then cloned from pENTR221 into the pHAGE-PGK-DCD23, pHAGE-PGK-SuperDegron or pHAGE-PGK-FKBPF36V DEST vector using Gateway cloning. SUM159 cells were transduced with the indicated lentivirus and selected with puromycin.
Cells were lysed with SDS lysis buffer (2% SDS, 10% Glycerol, 50mM Tris pH 6.8) and boiled at 95°C for 30min. Protein concentration was measured using Pierce BCA Protein Assay Kit (ThermoFischer) following manufacturer’s recommendations. Samples were ran in NuPAGETM 10% Bis-Tris Midi electrophoresis gels (Invitrogen) using NuPAGETM MES SDS running buffer (ThermoFischer Scientific). Proteins were subsequently transferred to an Immobilon-P polyvinylidene Difluoride (PVDF) membrane (Merck Millipore) using the wet-transfer method (Bio-Rad) in a transfer buffer consisting of 20% (v/v) methanol and 10% protein electrophoresis buffer (24.77 mM Tris and 0.192 M glycine).
(§1) For western blotting membranes were blocked in a solution of 5% (w/v) bovine serum albumin (BSA; Sigma-Aldrich) dissolved in TBS-0.1% Tween 20 (Sigma-Aldrich) then incubated at 4°C overnight with the primary antibodies diluted in 5% (w/v) BSA/TBS-T. The membranes where then washed and incubated with anti-mouse and/or anti-rabbit secondary antibodies (LI-COR Biosciences) for 2h at RT diluted in 5% (w/v) BSA/TBS-T then washed and imaged using the LI-COR Odyssey (LI-COR Biosciences). Images were analyzed using Image Studio Lite software (LI-COR Biosciences).

[3] = system: cMYC-EGFP-DCD23; assay: Degradation of cMYC-EGFP-DCD23 in HMEC (flow cytometry, western blotting); format: cell-based, human
Text: To systematically delineate the optimal DCD/degrader combination for targeted protein degradation, we undertook a matrix approach evaluating all 23 DCD tags against 6 small molecule degraders. […] To control for any potential off-target effects of the IMiD/CeLMOD agents that could indirectly affect the target of interest, we designed controls in which the specific DCD and the EGFP sequences were interspaced by a P2A ribosomal “skipping” sequence,[32] leading to separate translation of the DCD and the target protein (Figure 1A). These constructs were then inserted into a doxycycline-inducible lentiviral vector system and stably expressed in hTERT immortalized human mammary epithelial cells (HMEC), a suitable model to assess the functional consequences of cMYC degradation. cMYC was tagged at the C-terminus end for the initial screening experiments.
Figure 1 Design and experimental evaluation of the DCD tags (A) Representation of the experimental pipeline used to evaluate the different DCD constructs. […] Median EGFP intensity was measured in each condition using flow cytometry (3 independent experiments, normalized to the control and represented as mean ± SD). […] The protein lysates were probed for cMYC levels using western blotting. […] Target loss was evaluated either by measuring EGFP median intensity using flow cytometry or western blotting for cMYC protein (3 independent experiments, normalized to the control and represented as mean ± SD). […] Target loss was evaluated as in (D) (3 independent experiments, normalized to the control and represented as mean ± SD). […] Protein lysates were collected and probed for cMYC and p21 using western blotting. […] Protein lysates were collected and probed for cMYC and p21 using western blotting. […] These were left out as controls with no test substance.
Following degrader treatment cells were collected and DAPI was added to the cell suspension at 1 μg/mL to allow the exclusion of dead cells. EGFP signal was measured using BD LSR II flow cytometer (BD Biosciences). FlowJo 10 Software (FlowJo) was used for data processing.
Cells were lysed with SDS lysis buffer (2% SDS, 10% Glycerol, 50mM Tris pH 6.8) and boiled at 95°C for 30min. Protein concentration was measured using Pierce BCA Protein Assay Kit (ThermoFischer) following manufacturer’s recommendations. Samples were ran in NuPAGETM 10% Bis-Tris Midi electrophoresis gels (Invitrogen) using NuPAGETM MES SDS running buffer (ThermoFischer Scientific).
as §1

- DC50 ([1]; 2208L): 2.7 nM
- DC50 ([1]; PyMT): 4.3 nM
- DC50 ([3]; HMEC, 4h): 2 nM
SMILES: O=C1CC[C@H](N2Cc3c(OCc4ccc(CN5CCOCC5)cc4)cccc3C2=O)C(=O)N1 [CC220, Iberdomide]
- time of onset of loss of EGFP signal ([1]; 2208L and PyMT): ≤ 1 h
- degradation of DCD23 tagged EGFP ([1]; 2208L and PyMT, 24 h, western blotting): efficiently degraded
- DCmax ([1]; 2208L): 88%
- DCmax ([1]; PyMT): 81%
- concentrations at which targets are degraded [2]: 0.01 to 10 µM
- time of onset of degradation of cMYC and RBM39 ([2]; 1, 2 or 4h): ≤ 1 h
- c-MYC levels after washout ([3]; 10μM 4h, then drug washed out, 24h or 48h): restored back to pre-treatment levels
- time to significant degradation of c-MYC tagged with DCD23 ([3]; HMEC, 10uM): ≤ 15 min
- p21 levels after degradation of DCD23-tagged cMYC ([3]; HMEC, 10μM, 16h, western blotting): restoration of p21 levels
- DCmax at 4h ([3]; HMEC, 4h): 75%
